Earlier results as cited in patent publication US7374770B2, “Topical composition for follicular delivery of an ornithine decarboxylase inhibitor” (SkinMedica, Inc., priority 2001, dated 2008).

Conditions: undesirable secondary pharmacological effect, known

Compound: C#CC(N)CCCN (stereo not shown) [5-hexyne-1,4-diamine]
- brain 4-aminobutyric acid levels: increases
